Where two headings read alike, the source gives them in different places. No end group written: not given here.
Key:
[1] = biological target: T1, HMG-CoAR (catalytic domain) (Homo sapiens, UniProt P04035); assay: HMG-CoAR activity assay; type: biochemical; conditions: 10–500 µM, 37 °C, NADPH oxidation, absorbance 340 nm at 0 and 10 min; four independent experiments in duplicate
T1 construct: finally the HMG-CoAR (cata- lytic domain) (2 µL); purchased Sigma-Aldrich
T1 sequence (P04035 426-888 limits assumed): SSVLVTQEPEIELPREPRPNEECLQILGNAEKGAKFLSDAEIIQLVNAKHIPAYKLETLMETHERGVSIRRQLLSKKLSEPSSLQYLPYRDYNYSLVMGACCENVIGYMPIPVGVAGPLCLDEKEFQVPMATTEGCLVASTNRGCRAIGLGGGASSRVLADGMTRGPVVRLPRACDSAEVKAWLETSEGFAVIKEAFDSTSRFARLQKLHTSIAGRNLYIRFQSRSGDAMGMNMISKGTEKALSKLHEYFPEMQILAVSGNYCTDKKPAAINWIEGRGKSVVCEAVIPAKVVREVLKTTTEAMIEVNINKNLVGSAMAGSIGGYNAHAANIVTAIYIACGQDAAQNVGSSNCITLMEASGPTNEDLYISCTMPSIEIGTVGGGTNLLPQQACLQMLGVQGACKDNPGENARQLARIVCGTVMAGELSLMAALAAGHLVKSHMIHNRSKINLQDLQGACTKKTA
Protocol: The experiments were carried out following the manufacturer instructions and optimized protocol. See Supplementary Materials for further details. […]
cLex Co., Nagano, Japan). The peptides (P5, P5-Best, P-H6A, and P5-S7A) were synthe-sized by the company GeneScript (Piscataway, NJ, USA) at >95% purity. The antibody against HMG-CoAR was bought from Abcam (Cambridge, UK). Phenylmethanesulfonyl fluoride (PMSF), Na-orthovanadate inhibitors, and the antibodies against rabbit Ig-horse-radish peroxidase (HRP), mouse Ig-HRP, and SREBP-2 (which recognizes epitope located in a region between 833–1141 and bands at about 132 kDa) were purchased from Santa Cruz Biotechnology Inc. (Santa Cruz, CA, USA). The antibodies against hepatocyte nu-clear factor 1-alpha (HNF1-alpha) and PCSK9 were bought from GeneTex (Irvine, CA, USA). The inhibitor cocktail Complete Midi was from Roche (Basel, Switzerland). Mini protean TGX pre-cast gel 7.5% and Mini nitrocellulose Transfer Packs were purchased from BioRad (Hercules, CA, USA).
HepG2 Cell Culture Conditions and Treatment. The HepG2 cell line was bought from ATCC (HB-8065, ATCC from LGC Standards, Milan, Italy) and was cultured in DMEM high glucose with stable L-glutamine, supplemented with 10% FBS, 100 U/mL penicillin, 100 µg/mL streptomycin (complete growth medium) with incubation at 37 °C […]
HMG-CoAR Aactivity Assay. The experiments were carried out following the man-ufacturer instructions and optimized protocol. The assay buffer, NADPH, substrate solution, and HMG-CoAR were provided in the HMG-CoAR Assay Kit (Sigma Aldrich SRL, Milan, Italy). […] Subsequently, the samples were mixed and the absorbance at 340 nm read by the microplate reader Synergy H1 (Winooski, VT, USA) at time 0 and 10 min. The HMG-CoAR-dependent oxidation of NADPH and the inhibition properties of peptides were measured by absorbance reduction, which is directly proportional to enzyme activ- […]
(§1) In Vitro PCSK9-LDLR Binding Assay. […] The reaction was stopped with 2.0 M sulfuric acid and the absorbance at 450nm was measured using the Synergy H1 fluorescent plate reader […]

PCSK9-LDLR [2] = biological target: T2, PCSK9-LDLR (Homo sapiens, UniProt Q8NBP7); assay: In vitro PCSK9-LDLR binding assay; conditions: 0.1–100 µM, LDLR-AB coated plate, 2 h at RT, absorbance 450 nm; four independent experiments in duplicate
T2 construct: purchased CycLex Co., Nagano, Japan (CircuLex)
T2 sequence (Q8NBP7 153-692): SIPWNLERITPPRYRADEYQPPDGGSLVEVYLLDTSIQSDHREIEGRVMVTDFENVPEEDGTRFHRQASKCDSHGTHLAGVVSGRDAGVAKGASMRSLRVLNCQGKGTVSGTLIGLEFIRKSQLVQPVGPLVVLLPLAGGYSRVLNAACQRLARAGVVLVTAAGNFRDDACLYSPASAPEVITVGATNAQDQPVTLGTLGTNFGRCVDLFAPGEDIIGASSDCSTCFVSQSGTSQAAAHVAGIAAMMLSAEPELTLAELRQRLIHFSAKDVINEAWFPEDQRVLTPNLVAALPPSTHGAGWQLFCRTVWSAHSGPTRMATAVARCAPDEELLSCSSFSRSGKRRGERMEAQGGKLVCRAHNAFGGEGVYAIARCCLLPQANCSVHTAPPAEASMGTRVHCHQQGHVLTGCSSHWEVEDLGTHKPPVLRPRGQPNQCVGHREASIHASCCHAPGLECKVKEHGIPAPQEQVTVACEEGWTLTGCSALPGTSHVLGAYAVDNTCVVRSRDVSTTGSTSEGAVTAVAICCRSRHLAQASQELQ
T2 sequence (Q8NBP7 31-152 partner limits assumed): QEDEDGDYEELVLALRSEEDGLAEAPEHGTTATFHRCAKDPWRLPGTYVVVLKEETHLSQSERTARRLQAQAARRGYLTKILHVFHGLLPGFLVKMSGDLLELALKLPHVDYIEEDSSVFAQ
Protocol: Peptides P5 and P5 analogs (0.1–100 µM) were tested using the in vitro PCSK9-LDLR binding assay (CycLex Co., Nagano, Japan) following the manufacture instructions and conditions already optimized. Further details are provided in Supplementary Materials. […]
cLex Co., Nagano, Japan). The peptides (P5, P5-Best, P-H6A, and P5-S7A) were synthe-sized by the company GeneScript (Piscataway, NJ, USA) at >95% purity. The antibody against HMG-CoAR was bought from Abcam (Cambridge, UK). Phenylmethanesulfonyl fluoride (PMSF), Na-orthovanadate inhibitors, and the antibodies against rabbit Ig-horse-radish peroxidase (HRP), mouse Ig-HRP, and SREBP-2 (which recognizes epitope located in a region between 833–1141 and bands at about 132 kDa) were purchased from Santa Cruz Biotechnology Inc. (Santa Cruz, CA, USA). […]
HMG-CoAR Aactivity Assay. […] Subsequently, the samples were mixed and the absorbance at 340 nm read by the microplate reader Synergy H1 (Winooski, VT, USA) at time 0 and 10 min. The HMG-CoAR-dependent oxidation of NADPH and the inhibition properties of peptides were measured by absorbance reduction, which is directly proportional to enzyme activ- […]
as §1

[3] = biological target: T1, HMG-CoAR (catalytic domain); conditions: metabolite; read-out: IC50, HMG-CoAR activity (P5-met); cited from earlier work
PCSK9-LDLR [4] = biological target: T2, PCSK9-LDLR; conditions: cited from earlier work; for impairment of PCSK9-LDLR binding vs control: fixed concentration of 100 µM
LDLR = test system: LDLR; parameters: method as in 3 sources, ref 48 = [48]; doi:10.1111/jfbc.12757; 48. Lammi C. Zanoni C. Arnoldi A. Aiello G. […] (P3), a peptide from lupin protein, absorbed by Caco-2 cells, modulates cholesterol metabolism in HepG2 cells via SREBP-1 activation J. Food B ||| ref 22 = [22]; doi:10.1016/j.jff.2017.02.009; 22. Zanoni C. Aiello G. Arnoldi A. Lammi C. Investigations on the hypocholesterolaemic activity of […] and LTFPGSAED, two peptides from lupin β-conglutin: Focus on LDLR and PCSK9 pathways J. Fu ||| ref 24 = [24]; PMID 33808034; doi:10.3390/nu13030863; 24. Lammi C. Aiello G. Bollati C. Li J. Bartolomei M. Ranaldi G. Ferruzza S. Fassi E.M.A. Grazioso G. Sambuy Y. Trans-Epithelial Transport, Metabolism, and Biological Activity Assessment of the Multi-; conditions: cellular level, through modulation of SREBP-2; cited from earlier work
PCSK9 = test system: PCSK9; parameters: method as in 3 sources, ref 49 = [49]; PMID 35011066; doi:10.3390/nu14010193; 49. Macchi C. Greco M.F. Ferri N. Magni P. Arnoldi A. Corsini A. Sirtori C.R. Ruscica M. Lammi C. Impact of Soy β-Conglycinin Peptides on PCSK9 Protein Expression in HepG2 Cells Nutrients 2021 14 193 ||| ref 22 = [22]; doi:10.1016/j.jff.2017.02.009; 22. Zanoni C. Aiello G. Arnoldi A. Lammi C. Investigations on the hypocholesterolaemic activity of […] and LTFPGSAED, two peptides from lupin β-conglutin: Focus on LDLR and PCSK9 pathways J. Fu ||| ref 24 = [24]; PMID 33808034; doi:10.3390/nu13030863; 24. Lammi C. Aiello G. Bollati C. Li J. Bartolomei M. Ranaldi G. Ferruzza S. Fassi E.M.A. Grazioso G. Sambuy Y. Trans-Epithelial Transport, Metabolism, and Biological Activity Assessment of the Multi-; conditions: cellular level, through modulation of HNF-1α; cited from earlier work
[5] = read-out: IC50, PCSK9-LDLR binding (Pep2-8 analogs)

Substance	IC50 [1] [µM]	IC50 (PCSK9-LDLR [2]) [µM]	impairment of PCSK9-LDLR binding vs control (PCSK9-LDLR [4]) [%]	IC50 (PCSK9-LDLR [4]; [5]) [µM]	also measured
LILPKASDAD [Peptide P5-H6A]	74.4	9			
LILPKHADAD [Peptide P5-S7A]	73.8	1.45			
LPKHSDAD [Peptide P5-met, breakdown fragment (metabolite) of P5]					IC50 [3]: 175 µM; IC50 (PCSK9-LDLR [4]; metabolite, read-out: IC50, PCSK9-LDLR binding (P5-met)): 1.7 µM; LDLR level (P5-met, words) (LDLR): improves the LDLR; PCSK9 level (P5-met, words) (PCSK9): reduces PCSK9 levels
LYLPKHSDRD [Peptide P5-Best]	88.9				
[T4R,W12Y]Pep2-8: analog of peptide Pep2-8 (TVFRSWEEYLDYV)			−93.0	14.5 ± 1.3	
[Y9A]Pep2-8: analog of peptide Pep2-8 (TVFTSWEEALDWV)			−69.8	27.1 ± 1.2	

Reference: article PMC8951016, “Computational Design and Biological Evaluation of Analogs of Lupin Peptide P5 Endowed with Dual PCSK9/HMG-CoAR Inhibiting Activity” (Pharmaceutics, 2022)
